Assay results taken from US8679832B2, “Detection of protein translocation by beta-galactosidase reporter fragment complementation” (The Board of Trustees of the Leland Stanford Junior …, priority 2004, dated 2014).
Like-named read-outs stand apart in the source and are kept apart here.

Experiments:
[1] = target: glucocorticoid receptor (Homo sapiens, UniProt P04150); conditions: 30 min of treatment
From the text: To test the applicability of the system to a physiological translocation event the glucocoticoid receptor was fused to the amino-terminus of the GFP-α fusion. The glucocoticoid receptor is a nuclear steroid hormone receptor that undergoes a robust nuclear translocation in response to treatment with various hormones including dexamethasone. This construct was stably introduced into both the co-NLS and tEGFR-ω cell lines then assayed for changes in β-galactosidase activity upon treatment of the cells with dexamethasone using the luminescent β-galactosidase substrate.
Cell lines shown in FIG. 3 A were treated with varying concentrations of dexamethasone and assayed over time. […] The GR-α cell lines were treated with 1 μM dexamethasone (red) for 3 hours then stained with the luorescent β-galactosidase DDAO substrate and analyzed by low cytometry.

[2] = tested on: Crm1 mediated nuclear export; assay: Nuclear translocation gain of signal assay: NES-GFP-α-NLS co-expressed with ω-NLS, β-galactosidase complementation, luminescent substrate; format: cell-based, mouse; conditions: leptomycin B for 2 hours, C2C12 myoblasts
From the text: In order to utilize a complementation as a method of quantitatively assessing nuclear translocation events, two systems were designed that are distinct in the localization of the ω-fragment. FIG. 2A is a schematic showing the design of the nuclear translocation assay. In the let panel, the ω fragment is localized to the nucleus with a nuclear localization signal (NLS) and the cytosolic protein of interest is fused to the minimal α peptide. Upon stimulation the α fusion moves to the nucleus and complements the co, increasing β-galactosidase activity. In the right panel, the co fragment is tethered to the plasma membrane using the extracellular and transmembrane regions of EGFR. The cytosolic α-fusion complements spontaneously until stimulation when it translocates to the nucleus which results in a loss of enzyme activity.
The gain of signal assay (FIG. 2A left panel) localized the ω to the nucleus through fusion to a triplet SV40 nuclear localization signal (NLS). Thus, an increase in β-galactosidase activity should be observed when the target protein-α fusion moves from the cytosol to the nucleus. The loss of signal assay (FIG. 2 A right panel) localized the ω-fragment to the plasma membrane through fusion to the extracellular and transmembrane regions of the EGF receptor (tEGFR). […]

[3] = tested on: PH domain of AKT; assay: AKT PH domain plasma membrane translocation: AKT-GFP-α in 3T3 fibroblasts with tEGFR-ω, luminescent β-galactosidase assay, 96-well; format: cell-based; conditions: 50 ng/ml PDGF, insulin, or sorbitol; 3T3 cells; maximal over time course
Method: To test whether the system was robust enough to monitor translocation events in response to physiologically relevant stimuli, this system was applied to the translocation of the PH domain of AKT. […] The PH domain of AKT was fused to the GFP-α chimera and expressed in 3T3 fibroblasts harboring the tEGFR-ω protein. […] The cells were stimulated under various conditions, and the translocation of the PH domain was assayed in 96-well dishes by a luminescent measure of β-galactosidase activity.

[4] = target: T1, C1A domain from PKCγ (Homo sapiens, UniProt P05129); assay: Plasma membrane translocation assay: C1A domain of PKCγ fused to GFP-α mutants, tEGFR-ω in NIH 3T3 cells, β-galactosidase complementation; format: cell-based
T1 construct: the C1A domain from PKCγ was fused to four of the GFP-α point mutants; β-galactosidase α peptide carrying H31R, E41Q, N39D or N39Q (β-gal numbering; the mutation lies in the tag, not in PKCγ); expressed in transfected cells; host or cells: NIH 3T3 cells expressing tEGFR-ω
From the text: Creation of a plasma membrane translocation assay required expression of the ω fragment at the membrane which was achieved using the tEGFR-ω construct. When the target protein-α fusion move from the cytosol to the membrane, the local increased concentration of a peptide should drive complementation as illustrated in FIG. 4B. To determine which of the mutants would work best in this type of assay the C1A domain from PKCγ was fused to four of the GFP-α point mutants that complemented to varying degrees, H31R, E41Q, N39D, and N39Q. […] The ω fragment was tethered to the plasma membrane using the extracellular and transmembrane regions of the EGFR. Four of the mutants were fused to the C1A domain of PKCγ and co-expressed with the tEGFR. Their responses to 1 μM PMA for 20 min were expressed as a fold induction over background. The C1A domain efficiently translocated to the plasma membrane when exposed to phorbol esters such as PMA (FIG. 4C). The fusion proteins were expressed in NIH 3T3 cells expressing the tEGFR-ω, and assayed for increased complementation in the presence of PMA for 30 min.
The translocation of the C1A domain in response to PMA stimulation has been extensively characterized by fusion to GFP. The largest increase in fluorescence at the plasma membrane in response to PMA was reported to be 70% with the lowest dose of PMA detected using these methods being between 10 and 100 nM. […] Importantly, the requirement of the co fragment for complementation ensured that enzyme activity was only generated where the co-fragment was localized. Thus, the assay measured increases in protein concentration at a specific location in the cell.

[5] = target: T2, C1A domain (Homo sapiens, UniProt P05129); conditions: C1A-GFP, response to PMA, reported; cited from earlier work
T2 construct: The translocation of the C1A domain in response to PMA stimulation has been extensively characterized by fusion to GFP

Chain of glucocorticoid receptor (P04150 whole entry, species assumed, the tested form may be a part): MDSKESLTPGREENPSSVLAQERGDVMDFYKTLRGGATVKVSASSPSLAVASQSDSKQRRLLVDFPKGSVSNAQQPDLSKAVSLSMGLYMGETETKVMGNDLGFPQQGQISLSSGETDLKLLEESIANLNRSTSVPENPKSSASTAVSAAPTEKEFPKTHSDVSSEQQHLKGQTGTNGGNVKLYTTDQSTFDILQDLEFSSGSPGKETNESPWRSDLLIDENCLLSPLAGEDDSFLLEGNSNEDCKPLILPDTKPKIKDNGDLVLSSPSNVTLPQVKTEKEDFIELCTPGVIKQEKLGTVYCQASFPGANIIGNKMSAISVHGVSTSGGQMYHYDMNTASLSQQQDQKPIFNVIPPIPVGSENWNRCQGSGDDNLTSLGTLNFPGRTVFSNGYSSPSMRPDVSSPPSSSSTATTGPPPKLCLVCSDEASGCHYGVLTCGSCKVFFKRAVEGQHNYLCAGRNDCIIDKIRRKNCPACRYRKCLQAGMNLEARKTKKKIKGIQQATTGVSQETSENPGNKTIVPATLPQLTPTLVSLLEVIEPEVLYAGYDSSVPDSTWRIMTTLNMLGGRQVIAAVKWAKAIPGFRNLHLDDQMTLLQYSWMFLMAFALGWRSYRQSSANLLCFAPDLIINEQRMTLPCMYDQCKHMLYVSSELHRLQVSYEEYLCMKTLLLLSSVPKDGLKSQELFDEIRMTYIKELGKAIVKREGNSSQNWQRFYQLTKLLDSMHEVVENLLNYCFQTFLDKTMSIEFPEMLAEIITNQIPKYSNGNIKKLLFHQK

Compound: C[C@@H]1C[C@H]2[C@@H]3CCC4=CC(=O)C=C[C@]4(C)[C@@]3(F)[C@@H](O)C[C@]2(C)[C@@]1(O)C(=O)CO [dexamethasone]
- difference in β-galactosidase activity ([1]; gain of signal): 100%
- difference in β-galactosidase activity ([1]; loss of signal): 25%

Compound: CCC(=C/[C@H](C)C/C=C/C(C)=C/[C@@H](C)C(=O)[C@@H](C)[C@H](O)[C@@H](C)C/C(C)=C/C(=O)O)/C=C/[C@@H]1OC(=O)C=C[C@@H]1C [leptomycin B]
- increase in β-galactosidase activity [2]: 3.5 fold

Compound: OC[C@@H](O)[C@@H](O)[C@H](O)[C@@H](O)CO [sorbitol]
- increase in β-galactosidase activity [3]: 8 fold

Compound: platelet-derived growth factor [PDGF]
- increase in β-galactosidase activity [3]: 5 fold

Compound: CCCCCCCCCCCCCC(=O)O[C@@H]1[C@@H](C)[C@@]2(O)[C@@H](C=C(CO)C[C@]3(O)C(=O)C(C)=C[C@@H]23)[C@@H]2C(C)(C)[C@]12OC(C)=O [PMA]
- increase in signal ([4]; 800 nM PMA (saturating)): 1000%
- saturating PMA concentration ([4]; C1A domain membrane translocation assay): 800 nM
- increases in enzyme activity in the presence of PMA ([4]; β-galactosidase complementation, H31R): 700-1000%
- largest increase in fluorescence at the plasma membrane [5]: 70%

Compound: wt peptide: wild type α peptide of β-galactosidase (MGVITDSLAVVLQRRDWENPGVTQLNRLAAHPPFASWRNSEEARTDRPSQQL; E. coli; PEPTIDE (1)..(52) alpha peptide (wildtype))
- increase in β-galactosidase activity in the presence of PMA ([4]; C1A-GFP-α wt peptide, PMA, NIH 3T3 tEGFR-ω): < 10%

Compound: H31R: α peptide of β-galactosidase with H31R mutation, low affinity (MGVITDSLAVVLQRRDWENPGVTQLNRLAARPPFASWRNSEEARTDRPSQQL; E. coli; PEPTIDE (1)..(52) alpha peptide (H31R))
- induction of β-galactosidase activity in the presence of PMA ([4]; C1A-GFP-α mutant, 1 μM PMA, NIH 3T3 tEGFR-ω): 7 fold
